The numbers were not newly measured in article PMC9516332 (Frontiers in Oncology, 2022), which cites them from elsewhere.

Read-outs that look alike come from different tables or passages of the source.

Series [1] has as its target T1, panel of 255 wild-type kinases (Homo sapiens, UniProt P53778).
T1 sequence (P53778 1-367): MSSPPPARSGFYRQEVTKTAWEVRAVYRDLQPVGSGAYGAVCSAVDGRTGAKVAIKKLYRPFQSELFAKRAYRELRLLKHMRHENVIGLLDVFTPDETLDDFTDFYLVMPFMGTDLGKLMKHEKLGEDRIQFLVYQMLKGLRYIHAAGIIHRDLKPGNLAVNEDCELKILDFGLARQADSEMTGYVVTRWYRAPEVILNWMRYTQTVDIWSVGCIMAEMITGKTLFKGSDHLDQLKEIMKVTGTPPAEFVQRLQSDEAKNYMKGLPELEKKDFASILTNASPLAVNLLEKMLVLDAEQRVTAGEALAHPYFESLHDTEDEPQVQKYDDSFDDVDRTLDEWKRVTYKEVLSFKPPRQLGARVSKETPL
The note with it: p38γ, 1 µmol/L single concentration, cited from earlier work.

For series [2], the target named is T2, panel of 255 wild-type kinases (Homo sapiens, UniProt Q9NZJ5).
T2 sequence (Q9NZJ5 30-1116): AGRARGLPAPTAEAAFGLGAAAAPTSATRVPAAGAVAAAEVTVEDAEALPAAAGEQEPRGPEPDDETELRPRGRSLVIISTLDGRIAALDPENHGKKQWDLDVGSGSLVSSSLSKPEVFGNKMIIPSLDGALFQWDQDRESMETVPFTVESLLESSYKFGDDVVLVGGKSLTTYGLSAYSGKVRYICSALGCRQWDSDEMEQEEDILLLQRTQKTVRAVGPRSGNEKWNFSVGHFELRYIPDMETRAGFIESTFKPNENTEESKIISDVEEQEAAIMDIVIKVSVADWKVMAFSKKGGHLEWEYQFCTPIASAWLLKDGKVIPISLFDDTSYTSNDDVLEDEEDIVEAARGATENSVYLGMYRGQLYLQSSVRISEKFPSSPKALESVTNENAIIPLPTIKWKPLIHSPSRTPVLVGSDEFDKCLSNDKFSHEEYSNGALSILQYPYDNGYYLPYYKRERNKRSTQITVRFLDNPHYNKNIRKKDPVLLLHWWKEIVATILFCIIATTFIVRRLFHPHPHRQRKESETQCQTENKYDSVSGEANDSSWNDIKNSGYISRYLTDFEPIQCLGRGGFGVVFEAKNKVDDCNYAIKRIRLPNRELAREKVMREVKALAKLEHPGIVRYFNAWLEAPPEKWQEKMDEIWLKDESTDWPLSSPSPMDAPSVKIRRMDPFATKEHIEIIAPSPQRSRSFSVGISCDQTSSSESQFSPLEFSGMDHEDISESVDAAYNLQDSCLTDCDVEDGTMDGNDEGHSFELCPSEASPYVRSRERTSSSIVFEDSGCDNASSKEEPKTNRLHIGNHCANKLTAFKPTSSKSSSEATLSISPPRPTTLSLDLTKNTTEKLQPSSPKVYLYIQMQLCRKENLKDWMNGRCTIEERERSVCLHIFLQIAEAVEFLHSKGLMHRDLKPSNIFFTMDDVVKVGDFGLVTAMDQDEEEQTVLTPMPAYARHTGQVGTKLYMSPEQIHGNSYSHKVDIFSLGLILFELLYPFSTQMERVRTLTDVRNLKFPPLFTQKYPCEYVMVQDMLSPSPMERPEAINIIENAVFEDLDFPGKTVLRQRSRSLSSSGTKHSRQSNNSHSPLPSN
The note with it: kinase PEK, 1 µmol/L single concentration, cited from earlier work.

The target in series [3] is T3, panel of 255 wild-type kinases (Homo sapiens, UniProt Q9NWZ3).
T3 sequence (Q9NWZ3 1-460): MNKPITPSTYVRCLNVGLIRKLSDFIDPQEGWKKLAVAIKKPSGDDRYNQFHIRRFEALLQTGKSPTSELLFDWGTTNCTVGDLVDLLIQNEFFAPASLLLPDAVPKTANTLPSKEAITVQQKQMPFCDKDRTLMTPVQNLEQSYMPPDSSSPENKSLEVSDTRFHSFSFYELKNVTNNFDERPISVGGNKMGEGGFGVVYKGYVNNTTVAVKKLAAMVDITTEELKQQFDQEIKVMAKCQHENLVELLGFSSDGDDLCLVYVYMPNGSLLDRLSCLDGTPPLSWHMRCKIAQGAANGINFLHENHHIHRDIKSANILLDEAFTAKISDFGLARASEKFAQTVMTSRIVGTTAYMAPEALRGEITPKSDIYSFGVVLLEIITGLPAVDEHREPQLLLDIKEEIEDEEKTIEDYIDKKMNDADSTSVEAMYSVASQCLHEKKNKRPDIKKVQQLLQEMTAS
The note with it: kinase IRAK4, 1 µmol/L single concentration, cited from earlier work.

The target of series [4] is panel of 255 wild-type kinases (Homo sapiens, UniProt Q9UK32). The note with it: kinase RSK4, 1 µmol/L single concentration, cited from earlier work.
Series [5] concerns the target panel of 255 wild-type kinases (Homo sapiens, UniProt Q9H0K1). The note with it: kinase QIK, 1 µmol/L single concentration, cited from earlier work.
In series [6] the target is panel of 255 wild-type kinases (Homo sapiens, UniProt P05771). The note with it: kinase PKCβ1, 1 µmol/L single concentration, cited from earlier work.
In series [7] the target is panel of 255 wild-type kinases (Homo sapiens, UniProt Q14012). The note with it: CaMK1α kinase assay, 1 µmol/L single concentration, cited from earlier work.
Series [8] has as its target panel of 255 wild-type kinases (Homo sapiens, UniProt P50750). The note with it: CDK9/CycT1 kinase assay, 1 µmol/L single concentration, cited from earlier work.
In series [9] the target is panel of 255 wild-type kinases (Homo sapiens, UniProt P49760). The note with it: kinase CLK2, 1 µmol/L single concentration, cited from earlier work.
Series [10] has as its target panel of 255 wild-type kinases (Homo sapiens, UniProt P00533). The note with it: kinase EGFR; 1 µmol/L single concentration; ref DOI: 10.1158/1535-7163.MCT-18-0877; cited from earlier work.
The mark [11] stands for this setting: ref DOI: 10.1158/1535-7163.MCT-18-0877.
The mark [12] stands for this setting: ref DOI: 10.1371/journal.pone.0092146.

As for `C=CC(=O)N1CCC[C@@H](n2nc(-c3ccc(Oc4ccccc4)cc3)c3c(N)ncnc32)C1` [ibrutinib], in [1] (setting [11]), the “%-inhibition, p38γ” value is given as 3.51%. In addition, in series [2] (setting [11]), the “%-inhibition at 1 µmol/L, PEK” value is on record as 7.47%. Further, the “%-inhibition at 1 µmol/L, IRAK4” value in series [3] (setting [11]) is reported as -5%. Also, the “%-inhibition at 1 µmol/L, RSK4” value in [4] (setting [11]) is 5.52%. In series [5] (setting [11]), the “%-inhibition at 1 µmol/L, QIK” value is reported as 4.7%. In addition, in series [6] (setting [11]), the “%-inhibition at 1 µmol/L, PKCβ1” value was -3%. The “%-inhibition CaMK1α” value in series [7] (setting [11]) is 14%.
As for `Cc1cc(Nc2ncc(Cl)c(Nc3ccccc3S(=O)(=O)C(C)C)n2)c(OC(C)C)cc1C1CCNCC1` [ceritinib], the “%-inhibition CDK9/CycT1” value in series [8] (setting [11]) is 0.194%. The “%-inhibition, p38γ” value in series [1] (setting [11]) is listed as 3.32%. The “%-inhibition at 1 µmol/L, PEK” value in [2] (setting [11]) is recorded as 9.5%. Further, the “%-inhibition at 1 µmol/L, IRAK4” value in series [3] (setting [11]) is listed as 1.3%. Further, in series [4] (setting [11]), the “%-inhibition at 1 µmol/L, RSK4” value is 83%. In addition, the “%-inhibition at 1 µmol/L, QIK” value in series [5] (setting [11]) is reported as 7.41%. Besides, the “%-inhibition at 1 µmol/L, PKCβ1” value in series [6] (setting [11]) is on record as 6.66%. Moreover, the “%-inhibition CaMK1α” value in [7] (setting [11]) is listed as 37%. In addition, in series [9] (setting [11]), the “%-inhibition at 1 µmol/L, CLK2” value was 99%.
For `C[C@@H](Oc1cc(-c2cnn(C3CCNCC3)c2)cnc1N)c1c(Cl)ccc(F)c1Cl` [crizotinib], the “%-inhibition CDK9/CycT1” value in series [8] (setting [12]) is listed as 5%. In series [2] (setting [12]), the “%-inhibition at 1 µmol/L, PEK” value is given as 1.1%. The “%-inhibition at 1 µmol/L, IRAK4” value in series [3] (setting [12]) is 8%. For the same compound, the “%-inhibition at 1 µmol/L, RSK4” value in [4] (setting [12]) was -1.58%. Moreover, the “%-inhibition at 1 µmol/L, QIK” value in [5] (setting [12]) is 38%. Moreover, the “%-inhibition at 1 µmol/L, PKCβ1” value in series [6] (setting [12]) is on record as -3%. Moreover, the “%-inhibition CaMK1α” value in series [7] (setting [12]) is recorded as 0.734%. The “%-inhibition at 1 µmol/L, CLK2” value in [9] (setting [12]) was -6%.
Turning to `C=CC(=O)Nc1cc(Nc2nccc(-c3cn(C)c4ccccc34)n2)c(OC)cc1N(C)CCN(C)C` [osimertinib], the “%-inhibition CDK9/CycT1” value in [8] (setting [11]) was 0.721%. In addition, the “%-inhibition, p38γ” value in series [1] (setting [11]) was 2.19%. Besides, the “%-inhibition at 1 µmol/L, PEK” value in [2] (setting [11]) was 7%. The “%-inhibition at 1 µmol/L, IRAK4” value in series [3] (setting [11]) is on record as -2.76%. For the same compound, the “%-inhibition at 1 µmol/L, RSK4” value in [4] (setting [11]) was 38%. Also, the “%-inhibition at 1 µmol/L, QIK” value in [5] (setting [11]) is 33%. Besides, the “%-inhibition at 1 µmol/L, PKCβ1” value in [6] (setting [11]) was 9%. The “%-inhibition CaMK1α” value in series [7] (setting [11]) is on record as 10%. The “%-inhibition at 1 µmol/L, CLK2” value in series [9] (setting [11]) is recorded as 38%.
`CC(C)(C)c1nc(-c2cccc(NS(=O)(=O)c3c(F)cccc3F)c2F)c(-c2ccnc(N)n2)s1` [dabrafenib]: the “%-inhibition, p38γ” value in series [1] (setting [12]) is listed as 0.311%. In series [4] (setting [12]), the “%-inhibition at 1 µmol/L, RSK4” value is 2.2%. In addition, the “%-inhibition at 1 µmol/L, QIK” value in series [5] (setting [12]) is 80%. For the same compound, the “%-inhibition at 1 µmol/L, CLK2” value in [9] (setting [12]) is 0.875%.
As for `CO[C@@H]1[C@H](N(C)C(=O)c2ccccc2)C[C@H]2O[C@]1(C)n1c3ccccc3c3c4c(c5c6ccccc6n2c5c31)C(=O)NC4` [midostaurin], the “%-inhibition CDK9/CycT1” value in [8] (setting [11]) was 49%. Further, the “%-inhibition, p38γ” value in series [1] (setting [11]) is 7%. Besides, in [2] (setting [11]), the “%-inhibition at 1 µmol/L, PEK” value is on record as 11%. Moreover, the “%-inhibition at 1 µmol/L, EGFR” value in series [10] is reported as 69%. In addition, the “%-inhibition at 1 µmol/L, IRAK4” value in [3] (setting [11]) is given as 27%. Besides, in series [6] (setting [11]), the “%-inhibition at 1 µmol/L, PKCβ1” value is reported as 89%.
Take `CCc1cc2c(cc1N1CCC(N3CCOCC3)CC1)C(C)(C)c1[nH]c3cc(C#N)ccc3c1C2=O` [alectinib]: the “%-inhibition CDK9/CycT1” value in [8] (setting [11]) is -0.0188%. In series [1] (setting [11]), the “%-inhibition, p38γ” value was 1.73%. In addition, the “%-inhibition at 1 µmol/L, PEK” value in series [2] (setting [11]) was 9%. In addition, the “%-inhibition at 1 µmol/L, IRAK4” value in series [3] (setting [11]) is 19%. Moreover, the “%-inhibition at 1 µmol/L, RSK4” value in [4] (setting [11]) is given as 19%. Besides, the “%-inhibition at 1 µmol/L, QIK” value in [5] (setting [11]) is recorded as 3%. Also, in series [6] (setting [11]), the “%-inhibition at 1 µmol/L, PKCβ1” value is -1.89%. For the same compound, the “%-inhibition CaMK1α” value in series [7] (setting [11]) was 2.11%. For the same compound, the “%-inhibition at 1 µmol/L, CLK2” value in series [9] (setting [11]) was 14%.
